Data set [1] deals with 293T cells. Description: Fluorescence detection of Fluc-mRNA (cell transfection efficiency of LNP formulations). The class given is cell-based. The settings on record: for Relative light unit (RLU): LNP containing 0.3 μg Fluc-mRNA, 24 hours; for Multiples of values that equivalent to YK-201: RLU of YK-201 / RLU of the named lipid; for Multiples of values that equivalent to YK-202: RLU of YK-202 / RLU of the named lipid; for Ratio relative to SM-102: RLU of the named lipid / RLU of SM-102, times that of SM-102; for Multiples of values that equivalent to YK-209: RLU of YK-209 / RLU of the named lipid. The protocol:
(§1) Cell recovery and passaging: 293T cells were recovered and cultured in culture dishes to the required cell number.
(§2) Plating: The cells in the culture dish were digested, counted, plated in a 96-well plate at 10,000 cells per well, or in a 12-well plate at 150,000 cells per well, and cultured overnight until the cells adhered to the wall.
(§3) Cell recovery and passage: The method was the same as in Example 3.
(§4) Plating: The method was the same as Example 3.
The LNP formulation containing 0.3 μg Fluc-mRNA (prepared according to Example 4, the LNP formulation carrier components were cationic lipids, neutral lipids, structured lipids and polymer-conjugated lipids at a molar ratio of 49:10:39.5:1.5, and the cationic lipids were cationic lipids listed in Table 1) was added to the cell culture medium of a 96-well plate, and cultured for 24 hours. After that, the corresponding reagents were added according to the instructions of the Gaussia Luciferase Assay Kit, and the fluorescence expression intensity of each well was detected by the IVIS fluorescence detection system. This experiment verified the transfection efficiency of the LNP formulation in the cell, and the specific detection results are shown in Tables 6-9.

For data set [2], the system named is 293T cells. Description: Cell survival rate assay (CCK-8). The class given is cell-based. To be noted: LNP containing 1.5 μg Fluc-mRNA, 24 hours, CCK-8. The method, then:
as §1, §2, §3, §4
The LNP formulations containing 1.5 μg Fluc-mRNA (prepared according to Example 4, the LNP formulation carrier components are cationic lipids, neutral lipids, structured lipids and polymer-conjugated lipids at a molar ratio of 49:10:39.5:1.5, wherein the cationic lipids are the cationic lipids listed in Table 1) and the Lipofectamine 3000 formulation were added to the cell culture medium of the 96-well plate, and the culture was continued for 24 hours. Then, 10 μL of CCK-8 solution was added to each well, and the culture plate was incubated in the incubator for 1 hour, and the absorbance at 450 nm was measured by a microplate reader.

The subject of another data set is female BALB/C mice. Description: Mouse in vivo imaging of Fluc-mRNA LNP formulations. Also noted: average radiation intensity (mRNA expression): unit not given here. The settings on record: 10 μg Fluc-mRNA LNP intramuscularly. The protocol: The LNP formulation containing 10 μg Fluc-mRNA (prepared according to Example 4) was injected intramuscularly into female BALB/C mice aged 4 to 6 weeks and weighing 17 to 19 g, and the mice were intraperitoneally injected with fluorescent imaging substrates at specific time points (6 h, 24 h, 48 h and 7 d) after administration. The mice moved freely for 5 minutes, and then the average radiation intensity (corresponding to the fluorescence expression intensity) of the protein expressed by the mRNA carried by the LNP in the mice was detected by IVIS Spectrum small animal in vivo imager. The test results are shown in Tables 14 to 17 and FIGS. 12 to 14.

Data set [3] is described as follows: Particle size and polydispersity index (PDI) of nanolipid particles, dynamic light scattering. The class given is physicochemical. To be noted: LNP formulation prepared from the named cationic lipid, 25° C. The method, then:
The particle size and polydispersity index (PDI) were determined by dynamic light scattering method using a Malvern laser particle size analyzer. 10 μL of liposome solution was diluted to 1 mL with RNase-free deionized water and added to a sample pool. Each sample was measured three times. The measurement conditions were: 90° scattering angle, 25° C.

Data set [4] can be described thus: Encapsulation rate, drug loading concentration and total RNA concentration detection (RiboGreen). It is filed as physicochemical. The settings on record: LNP formulation of the named lipid. From the text: Encapsulation rate is a key quality attribute of liposomes. It refers to the percentage of drug content encapsulated in the lipid bilayer to the total amount of drug added, which can reflect the degree of drug encapsulation in liposomes. The Chinese Pharmacopoeia stipulates that the encapsulation rate should usually not be less than 80%.
The drug loading capacity is the ratio of the amount of drug in the liposome to the total amount of drug and carrier in the liposome. The drug loading capacity directly affects the clinical application dose of the drug, so the larger the drug loading capacity, the more it can meet clinical needs. The drug loading concentration is proportional to the drug loading capacity, and the relative proportion of the drug loading concentration can represent the relative proportion of the drug loading capacity. The relative proportion of the total RNA concentration can represent the relative proportion of the amount of mRNA carried by the LNP formulation.
1×TE buffer, 0.1% Triton X-100 buffer, and RiboGreen reagent (1:200) and mRNA standard stock solution were prepared.
An appropriate amount of sample was taken and added to an appropriate amount of 1×TE buffer, which was diluted to a solution containing about 2.8 μg of the test sample per 1 mL. Then the sample was added to a 96-well plate, where 50 μL of the diluted test sample or mRNA standard stock solution was added to each well, and then added with 1×TE buffer and 0.1% Triton X-100 buffer. The samples were incubated at 37° C. for 10 minutes, and 100 μL of RiboGreen reagent (1:200) was added to each well of the 96-well plate. The plate was centrifuged, and read using an ELISA reader, and the data was processed.

As to `CCCCCCCCC(CCCCCCCC)OC(=O)CCCCCCCN(CCO)CCCCCCCC(=O)OCCC(CCCCCC)CCCCCC` [Compound 21, 9-heptadecyl-8-(8-((3-hexylnonyl)oxy)-8-oxooctyl)-((2-hydroxyethyl)amino)octanoate, reference compound], in the data set with 293T cells [1], the “Relative light unit (RLU)” value was found to be 1421028 RLU, the “Multiples of values that equivalent to YK-201” value (“Multiples … to YK-201” for short) came out at 20.04, the “Multiples of values that equivalent to YK-202” value (“Multiples … to YK-202” below) is on record as 21.08 and the “Ratio relative to SM-102” value is recorded as 0.85. For the same molecule, the Cell survival rate in the data set with 293T cells [2] came to 69.02%. Further, in the data set on female BALB/C mice (6 h), the “average radiation intensity (mRNA expression)” value (shortened to “average radiation intensity”) worked out at 600390. Besides, the “average radiation intensity” value in the data set on female BALB/C mice (24 h) was 108000. Further, in the data set on female BALB/C mice (48 h), the “average radiation intensity” value was found to be 30025. In the data set on female BALB/C mice (7 d), the “average radiation intensity” value is on record as 6102.
In data set [3], `CCCCCCCCCCCOC(=O)CCCCCN(CCCCCCCC(=O)OCCC(CCCCCC)CCCCCC)CCN(C)CCO` [YK-203] registered a PDI of 23.7% and a Particle size of 235 nm. In data set [4], the Drug loading concentration was 38.38 µg/mL, the Encapsulation rate is on record as 91.0% and the “Total RNA concentration” value was 42.19 µg/mL. In addition, in the data set on 293T cells [1], the “Relative light unit (RLU)” value was found to be 3869614 RLU, the “Multiples … to YK-201” value is 7.36, the “Multiples … to YK-202” value is 7.74 and the “Multiples of values that equivalent to YK-209” value (from here on “Multiples … to YK-209”) came to 5.44. Further, in the data set on 293T cells [1], the “Ratio relative to SM-102” value is 2.32. This molecule also displayed a Cell survival rate in the data set on 293T cells [2] of 35.56%.
Take `CCCCCCCCCCCOC(=O)CCCCCN(CCCCCCCC(=O)OC(CCCCCCC)CCCCCCC)CCN(CC)CCO` [YK-205]: in data set [3], the PDI stood at 17.7% and the Particle size stood at 219 nm. Further, in data set [4], the Drug loading concentration amounted to 30.02 µg/mL, the Encapsulation rate came to 68.4% and the “Total RNA concentration” value worked out at 43.92 µg/mL. In the data set with 293T cells [1], the “Relative light unit (RLU)” value turned out to be 1029168 RLU, the “Multiples … to YK-201” value is on record as 27.68, the “Multiples … to YK-202” value was determined as 29.11 and the “Multiples … to YK-209” value is given as 20.46. For the same molecule, the “Ratio relative to SM-102” value in the data set with 293T cells [1] is given as 0.62. Besides, the Cell survival rate in the data set on 293T cells [2] is 58.92%.
Regarding `CCCCCCCCCCOC(=O)CCCN(CCCCCC(=O)OCC(CCCCCCCC)CCCCCCCC)CCN(CC)CCO` [YK-208], in data set [3], the PDI turned out to be 24.4% and the Particle size came out at 167 nm. In addition, in data set [4], the Drug loading concentration is 37.80 µg/mL, the Encapsulation rate was found to be 88.2% and the “Total RNA concentration” value turned out to be 42.84 µg/mL. Further, in the data set with 293T cells [1], the “Relative light unit (RLU)” value was found to be 3858487 RLU, the “Multiples … to YK-201” value is reported as 7.38, the “Multiples … to YK-202” value amounted to 7.76 and the “Multiples … to YK-209” value amounted to 5.46. Besides, the “Ratio relative to SM-102” value in the data set with 293T cells [1] turned out to be 2.32. The same molecule came in with a Cell survival rate with 293T cells [2] of 46.68%.
Take `CCCCCCCCC(CCCCCCCC)OC(=O)CCCCCN(CCCCCC(=O)OC(CCCCCCCC)CCCCCCCC)CCN(C)CCO` [YK-210, bis(heptadecan-9-yl)-6,6′-((2-(2-hydroxyethyl(methyl)amino)ethyl)azadialkyl)dihexanoate]: in data set [3], the PDI is 22.9% and the Particle size came to 224 nm. In addition, in data set [4], the Drug loading concentration amounted to 36.50 µg/mL, the Encapsulation rate worked out at 85.6% and the “Total RNA concentration” value was found to be 42.62 µg/mL. In the data set with 293T cells [1], the “Relative light unit (RLU)” value came out at 4628355 RLU, the “Multiples … to YK-201” value is recorded as 6.15, the “Multiples … to YK-202” value amounted to 6.47 and the “Multiples … to YK-209” value worked out at 4.55. Also, the “Ratio relative to SM-102” value in the data set on 293T cells [1] was found to be 2.78. The same molecule returned a Cell survival rate with 293T cells [2] of 38.38%.
As to `CCCCCCC(CCCCCC)CCOC(=O)CCCCCN(CCCCCC(=O)OCCC(CCCCCC)CCCCCC)CCN(C)CCO` [YK-211, bis(3-hexylnonyl)-6,6-((2-(2-hydroxyethyl(methyl)amino)ethyl)azadialkyl)dihexanoate], in data set [3], the PDI came to 20.7% and the Particle size is recorded as 222 nm. Moreover, in data set [4], the Drug loading concentration stood at 42.91 µg/mL, the Encapsulation rate is recorded as 97.7% and the “Total RNA concentration” value came out at 43.92 µg/mL. Besides, in the data set on 293T cells [1], the “Relative light unit (RLU)” value is 1370100 RLU, the “Multiples … to YK-201” value was determined as 20.79, the “Multiples … to YK-202” value came to 21.87 and the “Multiples … to YK-209” value came to 15.37. Besides, the “Ratio relative to SM-102” value with 293T cells [1] is reported as 0.82. This molecule gave a Cell survival rate in the data set with 293T cells [2] of 52.30%.
Consider `CCCCCCCCC(CCCCCCCC)COC(=O)CCCCCN(CCCCCC(=O)OCC(CCCCCCCC)CCCCCCCC)CCN(CCO)CCO` [YK-212, bis(2-octyldecyl)-6,6-((2-(bis(2-hydroxyethyl)amino)ethyl)azadialkyl)dihexanoate], for which, in data set [3], the PDI came to 19.2% and the Particle size is listed as 172 nm. In data set [4], the Drug loading concentration stood at 40.25 µg/mL, the Encapsulation rate worked out at 94.4% and the “Total RNA concentration” value came to 42.62 µg/mL. In the data set on 293T cells [1], the “Relative light unit (RLU)” value came to 3910590 RLU, the “Multiples … to YK-201” value came to 7.28, the “Multiples … to YK-202” value is 7.66 and the “Multiples … to YK-209” value is reported as 5.39. The “Ratio relative to SM-102” value in the data set on 293T cells [1] is 2.35. Further, in the data set with 293T cells [2], the Cell survival rate stood at 35.26%.
With `CCCCCCCCC(CCCCCCCC)OC(=O)CCCCCN(CCCCCC(=O)OC(CCCCCCCC)CCCCCCCC)CCN(CCO)CCO` [YK-213, bis(heptadecan-9-yl)-6,6-((2-(bis(2-hydroxyethyl)amino)ethyl)azadialkyl)dihexanoate], in data set [3], the PDI stood at 17.6% and the Particle size worked out at 207 nm. Further, in data set [4], the Drug loading concentration turned out to be 34.70 µg/mL, the Encapsulation rate worked out at 82.0% and the “Total RNA concentration” value turned out to be 42.34 µg/mL. In the data set on 293T cells [1], the “Relative light unit (RLU)” value was found to be 1364505 RLU, the “Multiples … to YK-201” value turned out to be 20.87, the “Multiples … to YK-202” value worked out at 21.95 and the “Multiples … to YK-209” value is 15.43. In addition, the “Ratio relative to SM-102” value in the data set on 293T cells [1] turned out to be 0.82. The Cell survival rate in the data set on 293T cells [2] is listed as 41.44%.
Turning to `CCCCCCCCCCCOC(=O)CCCCCN(CCCCC(=O)OCC(CCCCCCCC)CCCCCCCC)CCNCC` [YK-226], in the data set with 293T cells [1], the “Relative light unit (RLU)” value was determined as 57660 RLU, the “Multiples … to YK-201” value is on record as 493.98, the “Multiples … to YK-202” value turned out to be 519.55 and the “Multiples … to YK-209” value stood at 365.22. Also, the “Ratio relative to SM-102” value in the data set on 293T cells [1] is 0.03. In addition, in the data set on 293T cells [2], the Cell survival rate is reported as 27.90%.

The values are drawn from US20260007601A1, “IONIZABLE CATIONIC LIPID COMPOUND AND COMPOSITION FOR DELIVERING NUCLEIC ACID AND USE THEREOF” (BEIJING YOUCAREKECHUANG PHARMACEUTICAL TECHNOLOGY CO., LTD., priority 2023, published 2026).
